Test results from the OligoGym collection.
Values joined by “and” are separate entries in the source; they are usually repeats but may differ in a detail not shown here. Identical values can stand only once. After the bases stand the sugars from the 5' end (letter, count) and the backbone: PS all phosphorothioate, else s phosphorothioate and o phosphodiester by linkage. Methylation of C is not given here. k = constrained ethyl (cEt); d = 2'-deoxy (DNA)

Target: MALAT1
Conditions: ASO, A431, 0.005 µM

Row | Sequence | target mRNA inhibition
1 | GCCCCCCACGGCCCGC (sugars k3 d10 k3, PS) | 10%
2 | GCCCTTCTATTGGTAT (sugars k3 d10 k3, PS) | -3%
3 | GCCGACCTCACGGATT (sugars k3 d10 k3, PS) | 45%
4 | GCCGCCTGCTACCTTC (sugars k3 d10 k3, PS) | 12%
5 | GCCGCCTTTGTGAGGG (sugars k3 d10 k3, PS) | 25%
6 | GCCTATAAGGACAGCT (sugars k3 d10 k3, PS) | 11%
7 | GCCTCCTCAATCCACT (sugars k3 d10 k3, PS) | 16%
8 | GCCTCTATTGCCATGT (sugars k3 d10 k3, PS) | 30%
9 | GCCTCTTCATTGTATT (sugars k3 d10 k3, PS) | 10%
10 | GCCTGCTCGCCTCCTC (sugars k3 d10 k3, PS) | 41%
11 | GCCTTAAAGTTACATT (sugars k3 d10 k3, PS) | 10%
12 | GCCTTCCCGTACTTCT (sugars k3 d10 k3, PS) | 60% and 53%
13 | GCCTTCGGTGCCTTTA (sugars k3 d10 k3, PS) | -2%
14 | GCGAATGGCTTTGTCT (sugars k3 d10 k3, PS) | 7%
15 | GCGGACTTTCTCCCCC (sugars k3 d10 k3, PS) | -24%
16 | GCGGCCCCCCAGTTGC (sugars k3 d10 k3, PS) | -16%
17 | GCGGTACACTCCTTCT (sugars k3 d10 k3, PS) | 28%
18 | GCTAAGATAGCAGCAC (sugars k3 d10 k3, PS) | 29%
19 | GCTACCATCAGAAGAA (sugars k3 d10 k3, PS) | 22%
20 | GCTACTATATTTAAGG (sugars k3 d10 k3, PS) | 29%
21 | GCTAGCTTGGCCAAGT (sugars k3 d10 k3, PS) | 2%

Row | Sequence | target mRNA inhibition
22 | GCTCACATGCCAGTTA (sugars k3 d10 k3, PS) | 32%
23 | GCTCATCACTTTATGA (sugars k3 d10 k3, PS) | 10%
24 | GCTCCCCGCCTGAGCC (sugars k3 d10 k3, PS) | 8%
25 | GCTCGATGGAAAAATT (sugars k3 d10 k3, PS) | 10%
26 | GCTCTAGTTTCTATAA (sugars k3 d10 k3, PS) | 27%
27 | GCTGTGGTTTTAATAC (sugars k3 d10 k3, PS) | 49% and 57%
28 | GCTTACACACAACTGA (sugars k3 d10 k3, PS) | 50%
29 | GCTTATTCCCCAATGG (sugars k3 d10 k3, PS) | 73% and 48% and 50%
30 | GCTTCCTACTTTTCAG (sugars k3 d10 k3, PS) | 44%
31 | GCTTGACAAGCAATTA (sugars k3 d10 k3, PS) | 35%
32 | GGAAAAGTGGTTGCCC (sugars k3 d10 k3, PS) | 24%
33 | GGAAATTTTTCTACCG (sugars k3 d10 k3, PS) | 8%
34 | GGAACAAGTCCTACAA (sugars k3 d10 k3, PS) | 23%
35 | GGAATTATTATATGCT (sugars k3 d10 k3, PS) | 54%
36 | GGACAGTAGGTATAGT (sugars k3 d10 k3, PS) | 11%
37 | GGACTCTTTTCCTATC (sugars k3 d10 k3, PS) | -4%
38 | GGACTTGGCAGTCTGC (sugars k3 d10 k3, PS) | 27%
39 | GGAGAACAACTCGCAT (sugars k3 d10 k3, PS) | 17%
40 | GGAGGTATGACATATA (sugars k3 d10 k3, PS) | 68% and 84%
41 | GGATAAAAGCAGCTCC (sugars k3 d10 k3, PS) | 32%
42 | GGATGAAATGCCTCTG (sugars k3 d10 k3, PS) | 24%

Row | Sequence | target mRNA inhibition
43 | GGATGTATATAGTTCA (sugars k3 d10 k3, PS) | 30%
44 | GGCCAGACCAACCCCC (sugars k3 d10 k3, PS) | 3%
45 | GGCCATCATACTGCCA (sugars k3 d10 k3, PS) | -19%
46 | GGCTCGATGGAAAAAT (sugars k3 d10 k3, PS) | 33%
47 | GGGAACACAACTTTTA (sugars k3 d10 k3, PS) | 33%
48 | GGGCTTTACTTTCCAT (sugars k3 d10 k3, PS) | 16%
49 | GGGTTAAGCACTTTTA (sugars k3 d10 k3, PS) | 57%
50 | GGTACTTCAAGCATTC (sugars k3 d10 k3, PS) | 44%
51 | GGTCAATAGTGTAAAA (sugars k3 d10 k3, PS) | 43%
52 | GGTCATCTATTCACAA (sugars k3 d10 k3, PS) | 29%
53 | GGTGAGGCTGACACTT (sugars k3 d10 k3, PS) | 27%
54 | GGTTACCATAAGTAAG (sugars k3 d10 k3, PS) | 37%
55 | GGTTATGCTTATTCCC (sugars k3 d10 k3, PS) | 37%
56 | GTAAAACATTGCCTAC (sugars k3 d10 k3, PS) | 24%
57 | GTAACTACCAGCCATT (sugars k3 d10 k3, PS) | 45%
58 | GTAACTTTAAATTGGT (sugars k3 d10 k3, PS) | 55% and 63%
59 | GTACACTCCTTCTCTA (sugars k3 d10 k3, PS) | 17%
60 | GTACCTGAAAAATCTT (sugars k3 d10 k3, PS) | 3%
61 | GTATAGTTTACCACCT (sugars k3 d10 k3, PS) | 9%
62 | GTATGCTGATAAACTC (sugars k3 d10 k3, PS) | 52%
63 | GTATTTATAGACGGAG (sugars k3 d10 k3, PS) | 0%

Row | Sequence | target mRNA inhibition
64 | GTCCAATGCAAAAACA (sugars k3 d10 k3, PS) | -5%
65 | GTCCTAGCTTCATCAA (sugars k3 d10 k3, PS) | 18%
66 | GTCCTTTACAGAAGTC (sugars k3 d10 k3, PS) | 35%
67 | GTCTCGGGCTGCAGGC (sugars k3 d10 k3, PS) | -6%
68 | GTGAAAACCCACTCTT (sugars k3 d10 k3, PS) | 10%
69 | GTGGCCTTGGCACACT (sugars k3 d10 k3, PS) | -10%
70 | GTTAAACTTATCTGTT (sugars k3 d10 k3, PS) | 41%
71 | GTTAACAGCTGCCTGC (sugars k3 d10 k3, PS) | 7%
72 | GTTAACATGCAAACTT (sugars k3 d10 k3, PS) | 13%
73 | GTTACCTTGAAACCGA (sugars k3 d10 k3, PS) | 47%
74 | GTTACGAAAGTCCTTC (sugars k3 d10 k3, PS) | 45%
75 | GTTATATTAGGTTCTC (sugars k3 d10 k3, PS) | 7%
76 | GTTCAAAGATATTGTG (sugars k3 d10 k3, PS) | 0%
77 | GTTTAAGTCACCTTCA (sugars k3 d10 k3, PS) | 63% and 38%
78 | TAAATACCACCACCTG (sugars k3 d10 k3, PS) | 2%
79 | TAAATCATTGGGAGTT (sugars k3 d10 k3, PS) | 38%
80 | TAAATCCCTTTACACC (sugars k3 d10 k3, PS) | 12%
81 | TAAATTACACCAGTCC (sugars k3 d10 k3, PS) | 44%
